This note sets out measurements from patent US11230526B1, “Cylcoalkenyl derivatives useful as agonists of the GPR120 and/or GPR40 receptors” (Janssen Pharmaceutica NV, priority 2018, dated 2022).

SMILES strings stand for the structures. Values joined by “and” are separate entries in the source; they are usually repeats but may differ in a detail not shown here. Equal entries are not always repeated. Where only a bound is given, the exact number is not on record here.

Common to all, as to assay type: cell-based
Experiment [1] has as its target T1, long form of human GPR120 (Homo sapiens, UniProt Q5NUL3).
T1 construct: host or cells: PathHunter CHO-K1 GPR120 β-Arrestin Cell Line
Nature of the experiment: Human GPR120 DiscoveRx PathHunter Beta-Arrestin assay, Procedure β-arrestin A. The source says: Human GPR120 DiscoveRx PathHunter® Beta-Arrestin Assay Assay Principle:
The binding of an agonist (medium/long chain fatty acids or small molecule agonists) to the G-protein-coupled receptor GPR120 activates phospholipase C, leading to release of intracellular Ca^+2 through the generation of inositol 1,4,5-trisphosphate (InsP3 or IP3). GPR120 activation can also trigger intracellular signaling via recruitment of Beta-Arrestin. In the present method, agonist-induced activation of the human GPR120 receptor is monitored through the use of PathHunter® CHO-K1 GPR120 Beta-Arrestin Cell Line engineered by DiscoveRx, as detailed below. The cell lines are designed to co-express both the ProLink/Enzyme Donor (PK)-tagged GPCR and the Enzyme […] (EA)-tagged Beta-Arrestin fusion proteins. Upon GPR120 receptor stimulation/activation, the EA-tagged Beta-Arrestin portion is translocated to the tagged receptor, where the two enzyme fragments are brought within close proximity. Under these conditions, these fragments can interact and form an active Beta-gal enzyme complex through Enzyme Fragment Complementation (EFC). This active Beta-gal complex can enzymatically hydrolyse the substrate to produce a detectable light signal; therefore, activation as a function of agonist concentration can be expressed as an EC50 value to determine relative compound activities. This in vitro assay therefore serves to assess compound agonist activity of the GPR120.
In Procedure β-arrestin A, the cell used were PathHunter® CHO-K1 GPR120 β-Arrestin Cell Line, expressing the long form of human GPR120 (Genbank accession number NM_181745), with 3000 cells per well.
The selected CHO-K1 GPR120 β-Arrestin cells were cultured in Ham's F12 media supplemented with 10% fetal bovine serum (FBS), 1% Glutamine, 1×p/s, 800 μg/mL G418 and 300 μg/mL Hygromycin B (for selection). Cell stocks were maintained and grown in a sub-confluent state using standard cell culture procedures. The day before the experiment, the cells were harvested with non-enzymatic cell dissociation buffer and re-suspended in complete growth media at the desired concentration. A Corning 384-plate was then seeded with the proper number of cells in a volume of 25 μL, per well. The seeded plates were incubated overnight at 37° C.
On the day of the experiment, the Assay Buffer containing (a) HBSS with Ca^++ and Mg^++, (b) 20 mM HEPES, and (c) 0.1% BSA stabilizer (pH 7.4) was prepared. The growth medium was gently removed from the cell plates and 20 μL of Assay Buffer added to each well. The plate was then incubated at 37° C. for 60 min. Test compounds were serially diluted in Assay Buffer to desired concentrations (more particularly to one or more of the following μM concentrations: 25, 12.5, 6.25, 3.12, 1.56, 0.78, 0.39, 0.19, 0.10, 0.05, 0.02, 0.01). Five μL of compound dilution was then added to each well and the plate incubated at 37° C. for 90 min. The detection reagents were prepared according to the manufacture's instruction. Twelve μL of the detection reagents were added to each well and the plate incubated at room temperature for 60 min.
The plates were read on an EnVision instrument, using Protocol name: Luminescence, Plate type: 384 Costar, Measurement height: 3 mm, Measurement time: 1 s, Aperture: 384 Plate aperture. The % Activity relative to the positive control was calculated using the following equation:
The % Activity values were plotted versus the concentration of test compound and fitted to a sigmoidal dose-response curve with a Hill slope=1 (fixed value) using nonlinear regression with GraphPad Prism 5.0 to calculate the EC50 values. The Fitting Equation was: Y=Bottom+(Top-Bottom)/(1+10^((Log EC50−X)*HillSlope)), where X is the log of the concentration and Y is the response.

The target in the next experiment is T2, Human GPR120 short form (Homo sapiens, UniProt Q5NUL3).
T2 construct: expressed in transfected cells
T2 sequence (Q5NUL3 1-361): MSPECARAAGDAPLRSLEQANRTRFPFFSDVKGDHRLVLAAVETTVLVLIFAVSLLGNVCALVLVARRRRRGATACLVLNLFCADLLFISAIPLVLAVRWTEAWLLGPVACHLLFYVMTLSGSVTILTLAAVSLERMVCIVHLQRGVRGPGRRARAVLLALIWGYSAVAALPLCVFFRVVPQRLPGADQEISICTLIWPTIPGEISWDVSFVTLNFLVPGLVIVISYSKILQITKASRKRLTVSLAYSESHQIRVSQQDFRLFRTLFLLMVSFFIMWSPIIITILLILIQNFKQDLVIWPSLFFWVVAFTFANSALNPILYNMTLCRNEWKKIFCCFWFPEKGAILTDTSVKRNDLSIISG
Nature of the experiment: Human GPR120 calcium flux assay, Procedure Calcium B (4200 cells/well). In short, it runs like this: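 Agonist EC50 came from a four-parameter fit of RFU (Fmax−Fmin) read over 300 s on FLIPR. Cells were HEK293 stably transfected with human GPR120 (NM_001195755.1) at 4200 per well, serum-starved 1 h and loaded with Fluo-4 NW dye with probenecid before ligand addition.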

For the next experiment, the target named is T3, human GPR40 (Homo sapiens, UniProt O14842).
T3 construct: expressed in transfected cells
Nature of the experiment: GPR40 calcium flux assay, human GPR40. To be noted: HEK293 cells stably expressing GPR40; table does not say human or rat. In short, it runs like this:
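Cells preincubated 1 h at 37° C. in HBSS, 20 mM HEPES, 0.1% BSA, then Fluo 8 calcium dye 30 min at 37° C. and 15 min at room temperature.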
Background: Calcium assays in cells follow changes in intracellular calcium, usually with a dye or a luminescent sensor.

T3 sequence (O14842 whole entry): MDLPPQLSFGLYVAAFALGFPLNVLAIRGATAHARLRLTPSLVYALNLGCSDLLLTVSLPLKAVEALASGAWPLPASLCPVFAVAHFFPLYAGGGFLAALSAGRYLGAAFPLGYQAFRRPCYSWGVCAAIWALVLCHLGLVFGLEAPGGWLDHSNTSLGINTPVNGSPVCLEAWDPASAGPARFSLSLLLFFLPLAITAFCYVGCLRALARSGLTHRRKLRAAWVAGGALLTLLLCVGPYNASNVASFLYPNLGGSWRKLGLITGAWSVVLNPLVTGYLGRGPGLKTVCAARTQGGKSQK
T1 sequence (Q5NUL3 1-377 isoform Q5NUL3-1): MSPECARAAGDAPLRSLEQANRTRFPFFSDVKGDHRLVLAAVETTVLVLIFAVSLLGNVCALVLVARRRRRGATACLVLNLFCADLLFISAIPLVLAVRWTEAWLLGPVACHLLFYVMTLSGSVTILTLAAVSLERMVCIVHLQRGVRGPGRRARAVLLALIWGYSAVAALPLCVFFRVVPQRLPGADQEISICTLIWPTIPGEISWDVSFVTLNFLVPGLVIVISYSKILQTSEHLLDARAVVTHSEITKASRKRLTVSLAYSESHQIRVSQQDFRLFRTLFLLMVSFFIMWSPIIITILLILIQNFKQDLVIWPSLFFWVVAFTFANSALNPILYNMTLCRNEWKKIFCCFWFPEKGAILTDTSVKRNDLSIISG
T1 sequence (P32121 whole entry partner): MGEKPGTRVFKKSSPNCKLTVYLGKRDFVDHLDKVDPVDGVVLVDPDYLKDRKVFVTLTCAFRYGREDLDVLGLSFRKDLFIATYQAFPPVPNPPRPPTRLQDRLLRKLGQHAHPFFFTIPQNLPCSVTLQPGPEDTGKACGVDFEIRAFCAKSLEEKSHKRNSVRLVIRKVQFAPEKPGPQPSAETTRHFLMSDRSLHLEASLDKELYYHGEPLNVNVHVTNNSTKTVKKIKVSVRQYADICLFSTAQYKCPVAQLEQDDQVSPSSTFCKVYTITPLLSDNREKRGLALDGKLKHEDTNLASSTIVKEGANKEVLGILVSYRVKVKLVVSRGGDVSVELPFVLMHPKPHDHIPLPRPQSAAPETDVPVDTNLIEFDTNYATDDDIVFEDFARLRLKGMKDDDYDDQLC

A word on the EC50: it is the midpoint of the concentration-response curve. Regarding `Cc1c(CCC(=O)O)ccc(OCC2=C(c3ccc(F)cc3)CC(F)(F)C2)c1C` [Compound 10], the EC50 in experiment [1] was 155 nM; on Human GPR120 short form, 24 nM; on human GPR40, > 5000 nM.

With `Cc1cc(CCC(=O)O)cc(Br)c1OCC1=C(c2ccc(Cl)cc2)CCC1` [Compound 30, 3-[3-bromo-4-[[2-(4-chlorophenyl)cyclopenten-1-yl]methoxy]-5-methyl-phenyl]Propanoic Acid], the EC50 was 512 nM in experiment [1], 461 nM on Human GPR120 short form and > 5000 nM on human GPR40.

For the molecule `CC(Cc1ccc(OCC2=C(c3ccc(Cl)cc3)CCC2)c(F)c1)C(=O)O` (stereo not shown) [Compound 34, 3-[4-[[2-(4-chlorophenyl)cyclopenten-1-yl]methoxy]-3-fluoro-phenyl]-2-methyl-Propanoic Acid], the EC50 is 680 nM in experiment [1] and > 5000 nM at human GPR40.

Regarding `Cc1cc(CC(C)C(=O)O)ccc1OCC1=C(c2ccc(Cl)cc2)CCC1` (stereo not shown) [Compound 36, 3-[4-[[2-(4-chlorophenyl)cyclopenten-1-yl]methoxy]-3-methyl-phenyl]-2-methyl-Propanoic Acid], the EC50 was 235 nM in experiment [1], 193 nM on Human GPR120 short form and > 5000 nM on human GPR40.

In the case of `O=C(O)CCc1ccc(OCC2=C(c3ccc(Cl)cc3)CCC2)cc1C(F)(F)F` [Compound 39, 3-[4-[[2-(4-chlorophenyl)cyclopenten-1-yl]methoxy]-2-(trifluoromethyl)phenyl]Propanoic Acid], the EC50 in experiment [1] was 491 nM; on Human GPR120 short form, 215 nM; on human GPR40, 131 nM and 182 nM.

Consider `Cc1cc(CCC(=O)O)ccc1OCC1=C(c2ccc(F)cc2)CCC1` [Compound 42], for which the EC50 in experiment [1] is 340 nM; on Human GPR120 short form it was 61 nM; on human GPR40, > 5000 nM.

In the case of `O=C(O)CCc1ccc(OCC2=C(c3ccc(F)cc3)CCC2)cc1` [Compound 43, 3-[4-[[2-(4-fluorophenyl)cyclopenten-1-yl]methoxy]phenyl]Propanoic Acid], the figures for the EC50 (in experiment [1]; on Human GPR120 short form; on human GPR40) were 208 nM, 207 nM and 3030 nM, respectively.

Take `O=C(O)CCc1ccc(OCC2=C(c3ccc(F)cc3)CCC2)c(F)c1` [Compound 49]: the values for the EC50 (in experiment [1]; at Human GPR120 short form; on human GPR40) were 123 nM, 136 nM and > 5000 nM, respectively.

In the case of `Cc1cc(OCC2=C(c3ccc(Cl)cc3)CCC2)c(Br)cc1CCC(=O)O` [Compound 67], the EC50 is 167 nM in experiment [1], 73 nM on Human GPR120 short form and > 5000 nM at human GPR40.

As to `Cc1c(CCC(=O)O)cc(Br)c(OCC2=C(c3ccc(Cl)cc3)CCC2)c1Br` [Compound 68], the EC50 in experiment [1] is 1940 nM; on Human GPR120 short form it was 517 nM; on human GPR40 it was > 5000 nM.

As to `O=C(O)CCc1ccc(OCC2=C(c3ccc(Cl)cc3)CCC2)cc1OC(F)(F)F` [Compound 96, 3-[4-[[2-(4-chlorophenyl)cyclopenten-1-yl]methoxy]-2-(trifluoromethoxy)phenyl]Propanoic Acid], the EC50 in experiment [1] came out at 981 nM; at Human GPR120 short form, 875 nM; at human GPR40, 1780 nM.

Take `COc1cc(OCC2=C(c3ccc(Cl)cc3)CCC2)ccc1CCC(=O)O` [Compound 97, 3-[4-[[2-(4-chlorophenyl)cyclopenten-1-yl]methoxy]-2-methoxy-phenyl]Propanoic Acid]: the EC50 was 754 nM in experiment [1], 237 nM on Human GPR120 short form and 834 nM at human GPR40.

Take `O=C(O)CCc1ccc(OCC2=C(c3ccc(Cl)cc3)CCC2)cc1-c1ccccc1` [Compound 136, 3-[4-[[2-(4-chlorophenyl)cyclopenten-1-yl]methoxy]-2-phenyl-phenyl]Propanoic Acid]: the values for the EC50 (in experiment [1]; on human GPR40) were 788 nM and > 5000 nM, respectively.

With `O=C(O)CCc1ccc(OCC2=C(c3ccc(Cl)cc3)CCC2)cc1Cl` [Compound 143, 3-[2-chloro-4-[[2-(4-chlorophenyl)cyclopenten-1-yl]methoxy]phenyl]Propanoic Acid], the EC50 stood at 466 nM in experiment [1] and 365 nM on human GPR40.

For the molecule `CCc1cc(OCC2=C(c3ccc(Cl)cc3)CCC2)ccc1CCC(=O)O` [Compound 161, 3-[4-[[2-(4-chlorophenyl)cyclopenten-1-yl]methoxy]-2-ethyl-phenyl]Propanoic Acid], the EC50 was 680 nM in experiment [1] and 401 nM at human GPR40.

On to `Cc1cc(CCC(=O)O)ccc1OCC1=C(c2ccco2)CCC(F)(F)C1` [Compound 555, 3-[4-[[5,5-difluoro-2-(2-furyl)cyclohexen-1-yl]methoxy]-3-methyl-phenyl]Propanoic Acid], for which the EC50 was found to be 358 nM in experiment [1] and 164 nM on Human GPR120 short form.

Take `Cc1c(CCC(=O)O)ccc(OCC2=C(c3cccs3)CCC(F)(F)C2)c1C` [Compound 557, 3-[4-[[5,5-difluoro-2-(2-thienyl)cyclohexen-1-yl]methoxy]-2,3-dimethyl-phenyl]Propanoic Acid]: the concentration for a half-maximal effect (EC50) in experiment [1] worked out at 302 nM; on Human GPR120 short form it was 149 nM.

Turning to `O=C(O)CCc1cc(F)c(OCC2=C(c3cccs3)CCC(F)(F)C2)c(F)c1` [Compound 559, 3-[4-[[5,5-difluoro-2-(2-thienyl)cyclohexen-1-yl]methoxy]-3,5-difluoro-phenyl]Propanoic Acid], the EC50 worked out at 409 nM in experiment [1] and 238 nM on Human GPR120 short form.

As to `Cc1ccc(C2=C(COc3ccc(CCC(=O)O)cc3C)CC(F)(F)CC2)s1` [Compound 561, 3-[4-[[5,5-difluoro-2-(5-methyl-2-thienyl)cyclohexen-1-yl]methoxy]-3-methyl-phenyl]Propanoic Acid], the EC50 in experiment [1] was 120 nM; at Human GPR120 short form it was 71 nM.

Regarding `Cc1c(CCC(=O)O)ccc(OCC2=C(c3ccc(Cl)s3)CCC(F)(F)C2)c1C` [Compound 563, 3-[4-[[2-(5-chloro-2-thienyl)-5,5-difluoro-cyclohexen-1-yl]methoxy]-2,3-dimethyl-phenyl]Propanoic Acid], the EC50 was 237 nM in experiment [1] and 120 nM on Human GPR120 short form.

`Cc1ccc(C2=C(COc3ccc(CCC(=O)O)c(C)c3C)CC(F)(F)CC2)s1` [Compound 564, 3-[4-[[5,5-difluoro-2-(5-methyl-2-thienyl)cyclohexen-1-yl]methoxy]-2,3-dimethyl-phenyl]Propanoic Acid]: the EC50 in experiment [1] was 176 nM; at Human GPR120 short form, 90 nM.

Turning to `Cc1c(CCC(=O)O)ccc(OCC2=C(c3ccc(Cl)cc3)CC(F)(F)CC2)c1C` [Compound 568, 3-[4-[[2-(4-chlorophenyl)-4,4-difluoro-cyclohexen-1-yl]methoxy]-2,3-dimethyl-phenyl]Propanoic Acid], the values for the EC50 (in experiment [1]; at Human GPR120 short form) were 363 nM and 202 nM, respectively.
